Laboratory results published in US11608331B2 (priority 2021, dated 2023).
Read-outs that look alike come from different tables or passages of the source.

Columns and labels:
human furin protease = molecular target: T1, human furin protease (Homo sapiens, UniProt P09958); test: Furin protease assay; assay type: biochemical
T1 construct: purchased BPS Bioscience 78040

SARS-CoV-2 Mpro = SARS-CoV-2 Mpro (Severe acute respiratory syndrome coronavirus 2, UniProt P0DTD1); test: Main protease (Mpro) assay, 3CL Protease assay kit; assay type: biochemical
SARS-CoV-2 PLpro = SARS-CoV-2 PLpro (Severe acute respiratory syndrome coronavirus 2, UniProt P0DTD1); test: Papain-like protease (PLpro) assay; assay type: biochemical; settings: for IC50: dose response curve, read-out: IC50 against SARS-CoV-2 PLpro
in vitro = settings: human
[1] = system: SARS-CoV-2 strain NRC-03-nhCoV; test: microbe, parasite or virus in culture; assay type: cell-based
[2] = read-out: IC50 against human furin protease

T1 sequence (P09958 108-794): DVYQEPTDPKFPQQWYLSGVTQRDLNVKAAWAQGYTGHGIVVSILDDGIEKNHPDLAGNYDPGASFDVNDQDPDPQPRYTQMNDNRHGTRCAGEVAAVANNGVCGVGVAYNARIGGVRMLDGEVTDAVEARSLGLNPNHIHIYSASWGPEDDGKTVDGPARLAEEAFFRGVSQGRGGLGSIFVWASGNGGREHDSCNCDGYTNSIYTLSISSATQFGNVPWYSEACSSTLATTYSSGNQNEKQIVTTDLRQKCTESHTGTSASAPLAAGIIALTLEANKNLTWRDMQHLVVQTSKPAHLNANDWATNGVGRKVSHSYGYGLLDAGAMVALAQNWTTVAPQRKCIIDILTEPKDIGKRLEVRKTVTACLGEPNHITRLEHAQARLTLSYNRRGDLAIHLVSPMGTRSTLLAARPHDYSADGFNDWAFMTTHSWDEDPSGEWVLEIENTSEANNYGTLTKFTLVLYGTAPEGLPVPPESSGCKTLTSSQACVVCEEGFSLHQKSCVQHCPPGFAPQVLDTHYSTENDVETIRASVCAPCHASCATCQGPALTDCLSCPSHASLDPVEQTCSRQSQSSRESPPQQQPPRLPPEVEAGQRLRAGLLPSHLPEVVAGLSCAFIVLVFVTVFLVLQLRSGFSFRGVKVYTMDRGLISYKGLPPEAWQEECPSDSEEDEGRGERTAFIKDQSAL

COc1cc(C(NC2=NC(=O)C(CC(=O)Nc3ccc(C(=O)O)cc3)S2)c2c(O)[nH]c(=O)[nH]c2=O)ccc1O (stereo not shown) [Compound 7]
IC50 (human furin protease; [2]): 290 nM
inhibition at 100 µg/mL (SARS-CoV-2 Mpro; read-out: inhibition activity against Mpro enzyme (inhibition percentage)): 31 ± 2%
IC50 (SARS-CoV-2 PLpro): 85 nM
inhibition activity against SARS-CoV-2 PLpro (SARS-CoV-2 PLpro; screening, mean±SEM of 3 replicas): 56.4%
IC50 (in vitro): 1670 nM
IC50 ([1]; Severe acute respiratory syndrome coronavirus 2, Vero C1008, 72 h, read-out: IC50 inhibition activity against SARS-CoV-2): 770 nM

N=C(N/N=C/c1ccncc1)c1nonc1NCNc1nonc1C(=N)N/N=C/c1ccncc1 [Compound 13M]
IC50 (human furin protease): 86200 nM
IC50 (SARS-CoV-2 Mpro; compound 13M, FIG. 10B-10C, read-out: IC50 against Mpro enzyme (converted)): 13400 nM
IC50 ([1]; Severe acute respiratory syndrome coronavirus 2, Vero C1008, compound 13M, FIG. 10A, read-out: antiviral activity in vitro IC50): ~8 µg/mL

N=C(N/N=C/c1ccccc1O)c1nonc1NCNc1nonc1C(=N)N/N=C/c1ccccc1O [Compound 13]
IC50 (human furin protease; [2]): 290 nM
IC50 (SARS-CoV-2 PLpro): 63 nM
IC50 at 24 h (in vitro): 410 nM
IC50 ([1]; Severe acute respiratory syndrome coronavirus 2, Vero C1008, Vero-E6 cells, strain NRC-03-nhCoV, 72 h, read-out: IC50 inhibition activity against SARS-CoV-2): 110 nM
